Patent publication US7037942B2, “Amide compounds for the potentiation of cholinergic activity” (Astellas Pharma Inc., priority 1999, dated 2006)

Test system: penile erection
Test: Penile erection in rat
Assay type: in vivo
Conditions: male Fischer 344 rats, intraperitoneal, observed 60 minutes, mean number
Protocol: (This test was carried out according to a similar manner to that described in Jpn. J. Pharmacol., Vol. 64, 147–153 (1994))
Male Fischer 344 rats at the age of 8 weeks (n=7) were used. All rats were handled 3 minutes a day for three successive days before the tests. The rats were tested in groups of seven and various doses of the test compound were given in semi-randomized order. The test compounds were suspended in 0.5% methyl-cellulose immediately before use, and given intraperitoneally in a volume of 1 ml/kg just before the start of test. […] A mirror was situated behind each box […]. Data was expressed as a mean number.

Compound | Penile Erection (Number/hr) (dose 0.1 mg/kg) | Penile Erection (Number/hr) (dose 0.32 mg/kg)
O=C(NC1CCc2ccccc2C1)c1ccncc1 (stereo not shown) [Example 8, 2-(Pyridin-4-ylcarbonylamino)-1,2,3,4-tetrahydro-naphthalene] | 0.60 | 
O=C(NC1CCc2ccccc2C1)c1ccc(F)cc1 (stereo not shown) [Example 6, 2-(4-Fluorobenzoylamino)-1,2,3,4-tetrahydronaphthalene] |  | 0.60
CC1=CCC(NC(=O)c2ccncc2)CC1 (stereo not shown) [Example 7, 1-(pyridin-4-ylcarbonylamino)-4-methylcyclohex-3-ene] | 0.71 | 
O=C(Nc1ccc(F)cc1)N1CC=CCC1 [Example 2, 1-(4-fluorophenylcarbamoyl)-1,2,3,6-tetrahydropyridine] |  | 0.57
